Results from US20240067668A1, “HETEROARYL DERIVATIVE COMPOUND AND USE THEREOF” (VORONOI INC., priority 2020, published 2024).

How the values were obtained:
[1] = tested on: BaF3-EGFR (Del19/T790M/C797S) cells; experiment: Inhibitory activity on Ba/F3 cell proliferation (CellTiter-Glo, 72 hours); format: cell-based; conditions: Ba/F3 cells expressing EGFR Del19/T790M/C797S
Experimental: (§1) The following experiments were performed to evaluate the inhibitory activity of the compound represented by Chemical Formula 1 according to the present invention on the proliferation of Ba/F3 cells expressing EGFR mutants.
(§2) BaF3-EGFR (WT) and BaF3-EGFR (Del19/T790M/C797S) cells were seeded in a clear bottom white 96-well plate at a density of 3×10^3/100 μl/well, and then 0.5 μl/well of the culture medium, containing the compounds at 12 concentrations (0.00001-2 mM) serially diluted in 3 folds and the DMSO control, was added to a final concentration of 0.00005-10 μM, followed by culturing in a 37° C. CO2 incubator for 72 hours. After 72 hours, the plates treated with the compounds were taken out, treated with 100 μl/well of CellTiter-Glo® 2.0 Assay (Promega) solution, and mixed well. After mixing well at room temperature for about 10 minutes, […] was measured using a microplate reader. As to Data, GI50 (μM) values were calculated using GraphPad Prism 8.3.0 (GraphPad software Inc., San Diego) as percentages in proportion to vehicle-based treated cells. The result values were calculated as a cell growth rate (%) compared to the control group. A graph was created using the GraphPad Prism version 5.0 program, and GI50 (μM) values were calculated.

BaF3-EGFR (WT) cells = experiment: as above; format: cell-based; conditions: Ba/F3 cells expressing EGFR WT
Experimental: as §1, §2

SMILES | GI50 [1] | GI50 (BaF3-EGFR (WT) cells)
COc1cc(N2CCC(N3CCN(C)CC3)CC2)c(C)cc1Nc1nc(Nc2cnc3ccccc3c2P(C)(C)=O)c2cc[nH]c2n1 [Example 90, (3-((2-((2-methoxy-5-methyl-4-(4-(4-methylpiperazin-1-yl)piperidin-1-yl)phenyl)amino)-7H-pyrrolo[2,3-d]pyrimidin-4-yl)amino)quinolin-4-yl)dimethyl-phosphine oxide] | > 0.1 µM | > 0.1 µM
COc1cc(N2CCC(N3CCN(C)CC3)CC2)c(F)cc1Nc1nc(Nc2ccc3nccnc3c2P(C)(C)=O)c2cc[nH]c2n1 [Example 66, (6-((2-((5-fluoro-2-methoxy-4-(4-(4-methylpiperazin-1-yl)piperidin-1-yl)phenyl)amino)-7H-pyrrolo[2,3-d]pyrimidin-4-yl)amino)quinoxalin-5-yl)dimethyl-phosphine oxide] | > 0.1 µM | > 0.1 µM
Cc1cc(Nc2nc(Nc3ccc4nccnc4c3P(C)(C)=O)c3cc[nH]c3n2)c(OCC(F)(F)F)cc1N1CCC(N2CCOCC2)CC1 [Example 12, dimethyl (6-((2-((5-methyl-4-(4-morpholino-piperidin-1-yl)-2-(2,2,2-trifluoroethoxy)phenyl)amino)-7H-pyrrolo[2,3-d]pyrimidin-4-yl)amino)quinoxalin-5-yl) phosphineoxide] | > 0.1 µM | > 0.1 µM
COc1cc(N2CCC(N3CCN(C)CC3)CC2)ccc1Nc1cc(Nc2ccc3nccnc3c2P(C)(C)=O)c2cc[nH]c2n1 [Example 64, (6-((6-((2-methoxy-4-(4-(4-methylpiperazin-1-yl)piperidin-1-yl)phenyl)amino)-1H-pyrrolo[2,3-b]pyridin-4-yl)amino)quinoxalin-5-yl)dimethyl-phosphine oxide] | > 0.1 µM | > 0.1 µM
COc1cc(N2CCC(N3CCN(C)CC3)CC2)c(C)cc1Nc1nc(Nc2ccc3nccnc3c2P(C)(C)=O)c2sccc2n1 [Example 59, (6-((2-((2-methoxy-5-methyl-4-(4-(4-methylpiperazin-1-yl)piperidin-1-yl)phenyl)amino)thieno [3,2-d]pyrimidin-4-yl)amino)quinoxalin-5-yl)dimethyl-phosphine oxide] | > 0.1 µM | > 0.1 µM
COc1cc(N2CCN(C)CC2)c(-c2cnn(C)c2)cc1Nc1nc(Nc2ccc3nccnc3c2P(C)(C)=O)c2c(C#N)c[nH]c2n1 [Example 52] | > 0.1 µM | > 0.1 µM
CN1CCN(c2cc(OCC(F)(F)F)c(Nc3nc(Nc4cnc5ccccc5c4P(C)(C)=O)c4cc[nH]c4n3)cc2-c2cnn(C)c2)CC1 [Example 14, dimethyl (3-((2-((5-(1-methyl-1H-pyrazol-4-yl)-4-(4-methylpiperazin-1-yl)-2-(2,2,2-trifluoroethoxy)phenyl)amino)-7H-pyrrolo[2,3-d]pyrimidin-4-yl)amino)quinolin-4-yl)phosphine oxide] | > 0.1 µM | > 0.1 µM
Cc1cc(Nc2nc(Nc3ccc4nccnc4c3P(C)(C)=O)c3cc[nH]c3n2)c2c(c1N1CCN(C)CC1)CCO2 [Example 121, dimethyl (6-((2-((5-methyl-4-(4-methylpiperazin-1-yl)-2,3-dihydrobenzo-furan-7-yl)amino)-7H-pyrrolo[2,3-d]pyrimidin-4-yl)amino)quinoxalin-5-yl)phosphine oxide] | > 0.1 µM | > 0.1 µM
COc1cc(N2CCC(N3CCN(C)CC3)CC2)cnc1Nc1cc(Nc2ccc3nccnc3c2P(C)(C)=O)c2cc[nH]c2n1 [Example 65, (6-((6-((3-methoxy-5-(4-(4-methylpiperazin-1-yl)piperidin-1-yl)pyridin-2-yl)amino)-1H-pyrrolo[2,3-b]pyridin-4-yl)amino)quinoxalin-5-yl)dimethyl-phosphine oxide] | > 0.1 µM | > 0.1 µM
COc1cc(N2CCC(N3CCN(C)CC3)CC2)c(C(C)C)cc1Nc1nc(Nc2ccc3nccnc3c2P(C)(C)=O)c2cc[nH]c2n1 [Example 67, (6-((2-((5-isopropyl-2-methoxy-4-(4-(4-methylpiperazin-1-yl)piperidin-1-yl)phenyl)amino)-7H-pyrrolo[2,3-d]pyrimidin-4-yl)amino)quinoxalin-5-yl)dimethyl-phosphine oxide] | > 0.1 µM | > 0.1 µM
COc1cc(N2CCC(N3CCN(C)CC3)CC2)c(C)cc1Nc1cc(Nc2ccc3nccnc3c2P(C)(C)=O)c2cc[nH]c2n1 [Example 63, (6-((6-((2-methoxy-5-methyl-4-(4-(4-methylpiperazin-1-yl)piperidin-1-yl)phenyl)amino)-1H-pyrrolo[2,3-b]pyridin-4-yl)amino)quinoxalin-5-yl)dimethyl-phosphine oxide] | > 0.1 µM | > 0.1 µM
CN1CCN(c2ccc(Nc3nc(Nc4ccc5nccnc5c4P(C)(C)=O)c4cc[nH]c4n3)c(OCC(F)(F)F)c2)CC1 [Example 7, dimethyl (6-((2-((4-(4-methylpiperazin-1-yl)-2-(2,2,2-trifluoroethoxy)phenyl)amino)-7H-pyrrolo[2,3-d]pyrimidin-4-yl)amino)quinoxalin-5-yl)phosphine oxide] | > 0.1 µM | > 0.1 µM
Cc1cc(Nc2nc(Nc3ccc4nccnc4c3P(C)(C)=O)c3cc[nH]c3n2)c(OCC(F)(F)F)cc1N1CCOCC1 [Example 11, dimethyl (6-((2-((5-methyl-4-morpholino-2-(2,2,2-trifluoroethoxy)phenyl)amino)-7H-pyrrolo[2,3-d]pyrimidin-4-yl)amino)quinoxalin-5-yl) phosphineoxide] | > 0.1 µM | > 0.1 µM
COc1cc(N2CCN(C)CC2)c(-c2cnn(C(C)C)c2)cc1Nc1nc(Nc2ccc3nccnc3c2P(C)(C)=O)c2cc[nH]c2n1 [Example 49, (6-((2-((5-(1-isopropyl-1H-pyrazol-4-yl)-2-methoxy-4-(4-methyl-piperazin-1-yl)phenyl)amino)-7H-pyrrolo[2,3-d]pyrimidin-4-yl)amino)quinoxalin-5-yl)dimethyl-phosphine oxide] | > 0.1 µM | > 0.1 µM

More lines, now with the values ahead:

GI50 [1] | GI50 (BaF3-EGFR (WT) cells) | SMILES
≤ 0.05 µM | > 0.1 µM | C[C@@H]1CN(c2cc(OCC(F)(F)F)c(Nc3nc(Nc4ccc5nccnc5c4P(C)(C)=O)c4cc[nH]c4n3)cc2-c2cnn(C)c2)C[C@H](C)O1 [Example 10, (6-((2-((4-((2R, 6S)-2,6-dimethyl-morpholino)-5-(1-methyl-1H-pyrazol-4-yl)-2-(2,2,2-trifluoroethoxy)phenyl)amino)-7H-pyrrolo[2,3-d]pyrimidin-4-yl)amino)quinoxalin-5-yl)dimethyl phosphine oxide]
0.05 to 0.1 µM | > 0.1 µM | COc1cc(N2CCN(C)CC2)c(-c2cnn(C)c2)cc1Nc1nc(Nc2ccc3nccnc3c2P(C)(C)=O)c2c(Cl)c[nH]c2n1 [Example 51, (6-((5-chloro-2-((2-methoxy-5-(1-methyl-1H-pyrazol-4-yl)-4-(4-methylpiperazin-1-yl)phenyl)amino)-7H-pyrrolo[2,3-d]pyrimidin-4-yl)amino)quinoxalin-5-yl)dimethyl-phosphine oxide]
≤ 0.05 µM | > 0.1 µM | CN1CCN(c2c(-c3cnn(C)c3)cc(Nc3nc(Nc4ccc5nccnc5c4P(C)(C)=O)c4cc[nH]c4n3)c3c2OCCO3)CC1 [Example 130, dimethyl (6-((2-((7-(1-methyl-1H-pyrazol-4-yl)-8-(4-methylpiperazin-1-yl)-2,3-dihydrobenzo [b][1,4]dioxin-5-yl)amino)-7H-pyrrolo[2,3-d]pyrimidin-4-yl)amino)quinoxalin-5-yl)phosphine oxide]
≤ 0.05 µM | > 0.1 µM | COc1cc(N2CCN(C3CC3)CC2)c(-c2cnn(C)c2)cc1Nc1nc(Nc2ccc3nccnc3c2P(C)(C)=O)c2cc[nH]c2n1 [Example 42, (6-((2-((4-(4-cyclopropyl-piperazin-1-yl)-2-methoxy-5-(1-methyl-1H-pyrazol-4-yl)phenyl)amino)-7H-pyrrolo[2,3-d]pyrimidin-4-yl)amino)quinoxalin-5-yl)dimethyl-phosphine oxide]
0.05 to 0.1 µM | 0.05 to 0.1 µM | COc1cc(N2CCC(N3CCN(C)CC3)CC2)ccc1Nc1nc(Nc2ccc3nccnc3c2P(C)(C)=O)c2cc[nH]c2n1 [Example 57, (6-((2-((2-methoxy-4-(4-(4-methylpiperazin-1-yl)piperidin-1-yl)phenyl)amino)-7H-pyrrolo[2,3-d]pyrimidin-4-yl)amino)quinoxalin-5-yl)dimethyl-phosphine oxide]
≤ 0.05 µM | > 0.1 µM | CN1CCN(c2c(-c3cnn(C)c3)cc(Nc3nc(Nc4ccc5nccnc5c4P(C)(C)=O)c4cc[nH]c4n3)c3c2OCO3)CC1 [Example 129, dimethyl (6-((2-((6-(1-methyl-1H-pyrazol-4-yl)-7-(4-methylpiperazin-1-yl)benzo[d] [1,3]dioxol-4-yl)amino)-7H-pyrrolo[2,3-d]pyrimidin-4-yl)amino)quinoxalin-5-yl)phosphine oxide]
≤ 0.05 µM | 0.05 to 0.1 µM | Cn1cc(-c2cc(Nc3nc(Nc4ccc5nccnc5c4P(C)(C)=O)c4cc[nH]c4n3)ccc2N2CCC(N3CCOCC3)CC2)cn1 [Example 40, dimethyl (6-((2-((3-(1-methyl-1H-pyrazol-4-yl)-4-(4-morpholino-piperidin-1-yl)phenyl)amino)-7H-pyrrolo[2,3-d]pyrimidin-4-yl)amino)quinoxalin-5-yl) phosphinexide]
